Measurements from PubChem BioAssay (NCI).
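Results reflect a 48-hour exposure of cells in 96-well plates to compound at five concentrations. TGI is the concentration that stops growth completely.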

What was measured:
Assay in all cases: NCI tumour cell line growth inhibition, 48 h
HCC-2998 colon = system: HCC-2998 colon
IGROV1 ovarian = system: IGROV1 ovarian
U251 CNS = system: U251 CNS
ACHN renal = system: ACHN renal
SF-539 CNS = system: SF-539 CNS
HOP-92 NSCLC = system: HOP-92 NSCLC
LOX IMVI melanoma = system: LOX IMVI melanoma
MALME-3M melanoma = system: MALME-3M melanoma
OVCAR-4 ovarian = system: OVCAR-4 ovarian
786-0 renal = system: 786-0 renal
SW-620 colon = system: SW-620 colon
SF-295 CNS = system: SF-295 CNS
A549 NSCLC = system: A549 NSCLC
NCI-H23 lung = system: NCI-H23 lung
CAKI-1 renal = system: CAKI-1 renal
TK-10 renal = system: TK-10 renal
HCT-116 colon = system: HCT-116 colon
SNB-78 CNS = system: SNB-78 CNS
LXFL 529 NSCLC = system: LXFL 529 NSCLC
RXF-631 renal = system: RXF-631 renal
SK-OV-3 ovarian = system: SK-OV-3 ovarian
KM12 colon = system: KM12 colon
SNB-19 CNS = system: SNB-19 CNS
NCI-H226 lung = system: NCI-H226 lung
SR leukemia = system: SR leukemia
DMS 273 small cell lung = system: DMS 273 small cell lung
HOP-18 NSCLC = system: HOP-18 NSCLC
SF-268 CNS = system: SF-268 CNS
SK-MEL-2 melanoma = system: SK-MEL-2 melanoma
HT29 colon = system: HT29 colon
K-562 leukemia = system: K-562 leukemia
HL-60(TB) leukemia = system: HL-60(TB) leukemia
RXF 393 renal = system: RXF 393 renal
KM20L2 colon = system: KM20L2 colon
NCI-H522 lung = system: NCI-H522 lung
A498 renal = system: A498 renal
CCRF-CEM leukemia = system: CCRF-CEM leukemia
OVCAR-5 ovarian = system: OVCAR-5 ovarian
SK-MEL-28 melanoma = system: SK-MEL-28 melanoma
NCI-H460 lung = system: NCI-H460 lung
OVCAR-8 ovarian = system: OVCAR-8 ovarian
EKVX NSCLC = system: EKVX NSCLC
COLO 205 colon = system: COLO 205 colon
MOLT-4 leukemia = system: MOLT-4 leukemia
HOP-62 NSCLC = system: HOP-62 NSCLC
UACC-257 melanoma = system: UACC-257 melanoma
OVCAR-3 ovarian = system: OVCAR-3 ovarian
SN12C renal = system: SN12C renal
P388 leukemia = system: P388 leukemia
P388/ADR leukemia = system: P388/ADR leukemia
RPMI-8226 leukemia = system: RPMI-8226 leukemia
XF 498 CNS = system: XF 498 CNS
DLD-1 colon = system: DLD-1 colon
SN12K1 renal = system: SN12K1 renal
SK-MEL-5 melanoma = system: SK-MEL-5 melanoma
UACC-62 melanoma = system: UACC-62 melanoma
UO-31 renal = system: UO-31 renal
NCI/ADR-RES ovarian = system: NCI/ADR-RES ovarian
HCT-15 colon = system: HCT-15 colon
SNB-75 CNS = system: SNB-75 CNS
MCF7 breast = system: MCF7 breast
DMS 114 small cell lung = system: DMS 114 small cell lung
M14 melanoma = system: M14 melanoma
M19-MEL melanoma = system: M19-MEL melanoma

CC(C)(c1ccc(C=O)o1)c1ccc(C(C)(C)c2ccc(C=O)o2)o1
TGI (HCC-2998 colon): > 100 µM | TGI (IGROV1 ovarian): > 100 µM | TGI (U251 CNS): > 100 µM | TGI (ACHN renal): > 100 µM | TGI (SF-539 CNS): > 100 µM | TGI (HOP-92 NSCLC): > 100 µM | TGI (LOX IMVI melanoma): > 100 µM | TGI (MALME-3M melanoma): > 100 µM | TGI (OVCAR-4 ovarian): > 100 µM | TGI (786-0 renal): > 100 µM | TGI (SW-620 colon): > 100 µM | TGI (SF-295 CNS): > 100 µM | TGI (A549 NSCLC): > 100 µM | TGI (NCI-H23 lung): > 100 µM | TGI (CAKI-1 renal): > 100 µM | TGI (TK-10 renal): > 100 µM | TGI (HCT-116 colon): > 100 µM | TGI (SNB-78 CNS): > 100 µM | TGI (LXFL 529 NSCLC): > 100 µM | TGI (RXF-631 renal): > 100 µM | TGI (SK-OV-3 ovarian): > 100 µM | TGI (KM12 colon): > 100 µM | TGI (SNB-19 CNS): > 100 µM | TGI (NCI-H226 lung): > 100 µM | TGI (SR leukemia): > 100 µM | TGI (DMS 273 small cell lung): > 100 µM | TGI (HOP-18 NSCLC): > 100 µM | TGI (SF-268 CNS): > 100 µM | TGI (SK-MEL-2 melanoma): > 100 µM | TGI (HT29 colon): > 100 µM | TGI (K-562 leukemia): > 100 µM | TGI (HL-60(TB) leukemia): > 100 µM | TGI (RXF 393 renal): > 100 µM | TGI (KM20L2 colon): > 100 µM | TGI (NCI-H522 lung): > 100 µM | TGI (A498 renal): > 100 µM | TGI (CCRF-CEM leukemia): > 100 µM | TGI (OVCAR-5 ovarian): > 100 µM | TGI (SK-MEL-28 melanoma): > 100 µM | TGI (NCI-H460 lung): > 100 µM | TGI (OVCAR-8 ovarian): > 100 µM | TGI (EKVX NSCLC): > 100 µM | TGI (COLO 205 colon): > 100 µM | TGI (MOLT-4 leukemia): > 100 µM | TGI (HOP-62 NSCLC): > 100 µM | TGI (UACC-257 melanoma): > 100 µM

CC(=O)OC1CCC2(C)C(CCC3C2CCC2(C)C(c4ccc(=O)oc4)C(OC(C)=O)CC32O)C1 (configuration not stated)
TGI (OVCAR-3 ovarian): 0.0235 µM | TGI (HCC-2998 colon): 0.153 µM | TGI (IGROV1 ovarian): 0.169 µM | TGI (U251 CNS): 0.137 µM | TGI (SF-539 CNS): 0.015 µM | TGI (HOP-92 NSCLC): 0.0721 µM | TGI (LOX IMVI melanoma): 0.38 µM | TGI (MALME-3M melanoma): 0.017 µM | TGI (OVCAR-4 ovarian): 0.0253 µM | TGI (SN12C renal): 0.503 µM | TGI (SW-620 colon): 0.0593 µM | TGI (SF-295 CNS): 0.0456 µM | TGI (A549 NSCLC): 0.0157 µM | TGI (NCI-H23 lung): 0.0296 µM | TGI (CAKI-1 renal): 0.0194 µM | TGI (P388 leukemia): 125 µM | TGI (HCT-116 colon): 0.036 µM | TGI (P388/ADR leukemia): 125 µM | TGI (SNB-78 CNS): 0.112 µM | TGI (RPMI-8226 leukemia): 0.0595 µM | TGI (SK-OV-3 ovarian): 0.103 µM | TGI (KM12 colon): 0.161 µM | TGI (SNB-19 CNS): 0.33 µM | TGI (NCI-H226 lung): 0.288 µM | TGI (XF 498 CNS): 0.0771 µM | TGI (DMS 273 small cell lung): 0.0194 µM | TGI (HOP-18 NSCLC): 0.068 µM | TGI (SF-268 CNS): 0.0341 µM | TGI (DLD-1 colon): 0.0293 µM | TGI (SK-MEL-2 melanoma): 0.0911 µM | TGI (HT29 colon): 0.527 µM | TGI (SN12K1 renal): 0.0296 µM | TGI (SK-MEL-5 melanoma): 0.0216 µM | TGI (K-562 leukemia): 0.141 µM | TGI (HL-60(TB) leukemia): 0.114 µM | TGI (RXF 393 renal): 0.0128 µM | TGI (KM20L2 colon): 0.092 µM | TGI (UACC-62 melanoma): 0.0506 µM | TGI (NCI-H522 lung): 0.025 µM | TGI (UO-31 renal): 0.0712 µM | TGI (A498 renal): 0.161 µM | TGI (CCRF-CEM leukemia): 0.0556 µM | TGI (OVCAR-5 ovarian): 0.173 µM | TGI (NCI/ADR-RES ovarian): 0.0555 µM | TGI (SK-MEL-28 melanoma): 0.497 µM | TGI (NCI-H460 lung): 0.0197 µM | TGI (HCT-15 colon): 0.0313 µM | TGI (OVCAR-8 ovarian): 0.0951 µM | TGI (EKVX NSCLC): 0.0279 µM | TGI (SNB-75 CNS): 0.0801 µM | TGI (COLO 205 colon): 0.162 µM | TGI (MOLT-4 leukemia): 0.0227 µM | TGI (HOP-62 NSCLC): 0.0331 µM | TGI (UACC-257 melanoma): 0.115 µM | TGI (MCF7 breast): 0.229 µM

CCOC(=O)C(=O)CC(=O)C(Br)C(Br)c1ccc(Cl)cc1 (configuration not stated)
TGI (OVCAR-3 ovarian): 87.8 µM | TGI (HCC-2998 colon): > 100 µM | TGI (IGROV1 ovarian): > 100 µM | TGI (DMS 114 small cell lung): > 100 µM | TGI (ACHN renal): > 100 µM | TGI (HOP-92 NSCLC): 59.6 µM | TGI (LOX IMVI melanoma): 78.1 µM | TGI (MALME-3M melanoma): > 100 µM | TGI (OVCAR-4 ovarian): > 100 µM | TGI (SN12C renal): > 100 µM | TGI (786-0 renal): 34 µM | TGI (SW-620 colon): > 100 µM | TGI (SF-295 CNS): > 100 µM | TGI (A549 NSCLC): > 100 µM | TGI (NCI-H23 lung): 96.1 µM | TGI (CAKI-1 renal): > 100 µM | TGI (TK-10 renal): > 100 µM | TGI (SNB-78 CNS): > 100 µM | TGI (LXFL 529 NSCLC): 31.9 µM | TGI (RXF-631 renal): > 100 µM | TGI (RPMI-8226 leukemia): 51.8 µM | TGI (SK-OV-3 ovarian): > 100 µM | TGI (KM12 colon): > 100 µM | TGI (SNB-19 CNS): 64.6 µM | TGI (DMS 273 small cell lung): > 100 µM | TGI (SF-268 CNS): > 100 µM | TGI (DLD-1 colon): 43.1 µM | TGI (SK-MEL-2 melanoma): > 100 µM | TGI (HT29 colon): 34.7 µM | TGI (SK-MEL-5 melanoma): > 100 µM | TGI (K-562 leukemia): 40.8 µM | TGI (HL-60(TB) leukemia): 42 µM | TGI (RXF 393 renal): 62.6 µM | TGI (KM20L2 colon): > 100 µM | TGI (UACC-62 melanoma): > 100 µM | TGI (M14 melanoma): 50.7 µM | TGI (NCI-H522 lung): 45.7 µM | TGI (UO-31 renal): > 100 µM | TGI (CCRF-CEM leukemia): 29.3 µM | TGI (OVCAR-5 ovarian): > 100 µM | TGI (SK-MEL-28 melanoma): 72.3 µM | TGI (NCI-H460 lung): > 100 µM | TGI (HCT-15 colon): > 100 µM | TGI (OVCAR-8 ovarian): > 100 µM | TGI (EKVX NSCLC): > 100 µM | TGI (SNB-75 CNS): > 100 µM | TGI (COLO 205 colon): 53.5 µM | TGI (MOLT-4 leukemia): 53 µM | TGI (M19-MEL melanoma): 52.4 µM | TGI (HOP-62 NSCLC): > 100 µM | TGI (UACC-257 melanoma): 90.1 µM
